Experimental data reported in US20100222423A1, “ASPALATHIN-LIKE DIHYDROCHALCONE, EXTRACTS FROM UNFERMENTED ROOIBOS AND PROCESS FOR PREPARATION” (KNEIPP-WERKE KNEIPP-MITTEL-ZENTRALE GMBH & CO. KG, priority 2007, published 2010).

Tested on: Fischer-344 rats
Test: Tele-Stereo-EEG investigations in the rat (field potentials from frontal cortex, hippocampus, striatum, reticular formation)
Assay type: in vivo
Conditions: for effect on EEG frequencies in comparison with molecular constituents: approximately equimolar administration; for changes in EEG frequencies / power density compared with saline solution: oral single dose 3 or 6 mg/kg, up to 5 hours after application, n=6 rats
Description: The changes in the EEG (electroencephalography) frequencies was determined after administration of saline solution (control) and the compound of the formula I orally (3 or 6 mg/kg body weight).
The investigations were carried out analogously to the method described by W. Dimpfel (Dimpfel, W., Preclinical database of pharmaco-specific rat EEG fingerprints (Tele-Stereo-EEG). Eur. J. Med. Res. (2003) δ: 199-207) as follows: 4 Bipolar concentric electrodes together with a microplug on a common baseplate were implanted in six male adult Fischer-344 rats (converted day-night) aged 6 months. The plug served for recording a four-channel transmitter for telemetric transmission of the field potentials derived from frontal cortex, hippocampus, striatum and reticular formation. The signals were subjected to a fast Fourier transformation on a computer system (“EEG analysis” software, OS science operating system, “LabTeam” laboratory computer from MediSyst, Linden, Germany) in realtime and the power density spectra were determined in each case over 60 minutes. The division of the spectra into 6 different frequency ranges permitted the determination of pharmaco-specific changes in relation to the initial values, measured in each case before application, within these frequency bands.
Application protocol of the substances: the substances were applied orally 45 minutes after the beginning of the measurements (initial value). Five minutes later, the measurements were started again, analyzed continuously at least over the next 5 hours and collected in 60 minute periods. The test substance was applied in a dose of 3 and 6 mg/kg (compound of the formula I). The experimental series was begun with the administration of saline solution (control), which led to no abnormal change (FIG. 6).
The statistical comparison of the experiments with the results which were measured after administration of saline solution was effected with the aid of multivariant analysis according to Ahrens and Läuter (cf. H. Ahrens, J. Läuter, “Mehrdimensionale Varianzanalyse” [Multidimensional variance analysis]” (1974), Akademie Verlag, Berlin) on the basis of the changes within the individual frequency bands in all regions of the brain as variables.

Row | Compound | effect on EEG frequencies in comparison with molecular constituents (oral, rat) | changes in EEG frequencies / power density compared with saline solution | changes in EEG frequencies / power density compared with saline solution (listed as compound according to the formula I) | pattern of changes in electrical brain activity compared with reference medicaments (oral single dose, rat) | discriminance analysis of EEG frequency changes (four regions of the brain, 6 frequency bands, 24 variables) (rat, compared with medicaments of the database) | crossing of the blood-brain barrier (inferred from central nervous activity) (rat, oral, substance or its metabolites)
1 | O=C(CCc1ccc(O)c(O)c1)c1c(O)cc(O)c([C@@H]2O[C@H](CO)[C@@H](O)[C@H](O)[C@H]2O)c1O [aspalathin] | not by parts of the molecule | – | – | – | – | –
2 | O=C(CCc1ccc(O)c(O)c1)c1c(O)c(C2OC(CO)C(O)C(O)C2O)c(O)c(C2c3c(O)cc(O)cc3OC(c3ccc(O)c(O)c3)C2O)c1O (centres unmarked) [compound according to formula I] | the effect can be achieved | stable changes in the power density in all areas of the brain | dose-dependent changes in the EEG frequencies | corresponded to those after administration of metanicotine, galantamine, tacrine, L-DOPA or nefopam | close to that of galantamine, tacrine and nefopam | evidently cross the blood-brain barrier
3 | catechin [reference compound] | not by parts of the molecule | – | – | – | – | –
